≈ marks a conversion by molar mass, not a printed value.
Key:
[1] = target: T1, Discoidin domain-containing receptor 2 (Homo sapiens) (UniProt Q16832); test: Inhibition of human DDR2 at 100 nM by KINOMEscan assay relative to control
T1 sequence (whole entry): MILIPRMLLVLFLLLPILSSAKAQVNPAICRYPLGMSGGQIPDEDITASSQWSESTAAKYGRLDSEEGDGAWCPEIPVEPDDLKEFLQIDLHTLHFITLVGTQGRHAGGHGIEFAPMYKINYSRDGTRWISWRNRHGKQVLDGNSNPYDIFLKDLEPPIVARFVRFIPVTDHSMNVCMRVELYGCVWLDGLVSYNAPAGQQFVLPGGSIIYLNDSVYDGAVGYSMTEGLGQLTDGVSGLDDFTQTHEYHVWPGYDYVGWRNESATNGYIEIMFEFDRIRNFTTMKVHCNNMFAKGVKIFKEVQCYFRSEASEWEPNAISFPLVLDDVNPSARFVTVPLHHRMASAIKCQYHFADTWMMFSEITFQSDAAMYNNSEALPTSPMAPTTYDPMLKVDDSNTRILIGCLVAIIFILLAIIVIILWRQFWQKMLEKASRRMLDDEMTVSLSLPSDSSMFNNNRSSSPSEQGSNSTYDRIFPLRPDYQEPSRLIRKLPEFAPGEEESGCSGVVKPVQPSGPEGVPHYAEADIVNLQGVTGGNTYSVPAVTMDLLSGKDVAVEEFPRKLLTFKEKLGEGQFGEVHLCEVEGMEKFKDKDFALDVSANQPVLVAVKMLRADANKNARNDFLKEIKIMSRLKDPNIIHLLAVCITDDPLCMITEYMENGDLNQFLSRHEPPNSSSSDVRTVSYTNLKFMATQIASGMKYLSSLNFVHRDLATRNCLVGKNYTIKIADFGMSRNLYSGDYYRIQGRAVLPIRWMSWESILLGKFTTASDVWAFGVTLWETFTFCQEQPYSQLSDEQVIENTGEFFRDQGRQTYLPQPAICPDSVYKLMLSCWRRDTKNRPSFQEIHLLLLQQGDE

[2] = target: TRAF2 and NCK-interacting protein kinase (Homo sapiens) (UniProt Q9UKE5); test: Inhibition of TNIK (unknown origin) at 100 nM by KINOMEscan assay relative to control
Chain of TRAF2 and NCK-interacting protein kinase (Homo sapiens) (Q9UKE5 whole entry, looked up): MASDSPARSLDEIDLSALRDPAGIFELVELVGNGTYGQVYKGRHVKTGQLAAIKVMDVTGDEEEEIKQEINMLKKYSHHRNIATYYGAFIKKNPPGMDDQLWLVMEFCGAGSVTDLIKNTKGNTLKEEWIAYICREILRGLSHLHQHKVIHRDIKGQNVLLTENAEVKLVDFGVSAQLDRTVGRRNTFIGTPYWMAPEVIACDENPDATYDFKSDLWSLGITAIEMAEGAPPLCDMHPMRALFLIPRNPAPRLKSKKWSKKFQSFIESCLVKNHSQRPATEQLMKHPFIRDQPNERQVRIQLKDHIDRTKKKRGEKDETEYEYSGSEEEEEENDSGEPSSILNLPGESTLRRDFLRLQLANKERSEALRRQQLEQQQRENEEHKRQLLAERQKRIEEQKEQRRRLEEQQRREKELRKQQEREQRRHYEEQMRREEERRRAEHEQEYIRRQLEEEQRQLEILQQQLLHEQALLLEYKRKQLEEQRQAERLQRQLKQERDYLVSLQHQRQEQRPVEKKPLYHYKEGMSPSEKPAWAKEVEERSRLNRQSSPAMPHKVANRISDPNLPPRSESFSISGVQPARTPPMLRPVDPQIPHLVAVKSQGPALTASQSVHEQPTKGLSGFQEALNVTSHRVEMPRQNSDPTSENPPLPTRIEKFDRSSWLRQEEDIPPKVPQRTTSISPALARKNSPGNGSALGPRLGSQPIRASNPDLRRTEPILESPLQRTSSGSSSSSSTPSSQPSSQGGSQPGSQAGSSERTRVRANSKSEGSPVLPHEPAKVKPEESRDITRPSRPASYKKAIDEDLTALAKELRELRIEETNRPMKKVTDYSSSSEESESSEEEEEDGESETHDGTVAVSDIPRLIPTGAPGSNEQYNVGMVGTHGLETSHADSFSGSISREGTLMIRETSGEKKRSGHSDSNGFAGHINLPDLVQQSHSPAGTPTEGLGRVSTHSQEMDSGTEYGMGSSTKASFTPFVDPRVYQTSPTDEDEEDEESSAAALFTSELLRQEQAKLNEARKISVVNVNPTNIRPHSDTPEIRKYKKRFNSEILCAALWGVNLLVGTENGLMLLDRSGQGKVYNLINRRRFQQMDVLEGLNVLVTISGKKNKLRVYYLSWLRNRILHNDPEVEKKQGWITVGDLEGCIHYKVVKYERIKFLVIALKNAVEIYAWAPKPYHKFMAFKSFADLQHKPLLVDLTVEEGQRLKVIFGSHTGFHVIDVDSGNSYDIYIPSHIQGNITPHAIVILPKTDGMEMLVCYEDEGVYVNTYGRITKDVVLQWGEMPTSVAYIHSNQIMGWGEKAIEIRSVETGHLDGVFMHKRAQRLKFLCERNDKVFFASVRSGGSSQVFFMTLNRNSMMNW

[3] = target: T2, Mitogen-activated protein kinase 14 (Homo sapiens, UniProt Q16539); test: Binding affinity to biotinylated P38alpha assessed as dissociation half life by SPR analysis
T2 sequence (Q16539 whole entry): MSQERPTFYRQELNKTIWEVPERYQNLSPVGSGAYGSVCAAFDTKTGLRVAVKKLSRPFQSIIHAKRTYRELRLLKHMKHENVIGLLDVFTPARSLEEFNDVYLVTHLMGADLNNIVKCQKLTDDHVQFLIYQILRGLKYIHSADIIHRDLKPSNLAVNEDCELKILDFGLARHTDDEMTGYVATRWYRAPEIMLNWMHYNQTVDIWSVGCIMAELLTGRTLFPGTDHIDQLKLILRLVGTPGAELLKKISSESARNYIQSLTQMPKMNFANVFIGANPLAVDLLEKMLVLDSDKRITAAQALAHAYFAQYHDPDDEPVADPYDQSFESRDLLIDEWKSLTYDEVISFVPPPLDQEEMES

[4] = target: Ephrin type-A receptor 4 (Homo sapiens) (UniProt P54764); test: Inhibition of EphA4 (unknown origin) at 1 uM relative to control
Chain of Ephrin type-A receptor 4 (Homo sapiens) (P54764 whole entry, the tested form may be a part): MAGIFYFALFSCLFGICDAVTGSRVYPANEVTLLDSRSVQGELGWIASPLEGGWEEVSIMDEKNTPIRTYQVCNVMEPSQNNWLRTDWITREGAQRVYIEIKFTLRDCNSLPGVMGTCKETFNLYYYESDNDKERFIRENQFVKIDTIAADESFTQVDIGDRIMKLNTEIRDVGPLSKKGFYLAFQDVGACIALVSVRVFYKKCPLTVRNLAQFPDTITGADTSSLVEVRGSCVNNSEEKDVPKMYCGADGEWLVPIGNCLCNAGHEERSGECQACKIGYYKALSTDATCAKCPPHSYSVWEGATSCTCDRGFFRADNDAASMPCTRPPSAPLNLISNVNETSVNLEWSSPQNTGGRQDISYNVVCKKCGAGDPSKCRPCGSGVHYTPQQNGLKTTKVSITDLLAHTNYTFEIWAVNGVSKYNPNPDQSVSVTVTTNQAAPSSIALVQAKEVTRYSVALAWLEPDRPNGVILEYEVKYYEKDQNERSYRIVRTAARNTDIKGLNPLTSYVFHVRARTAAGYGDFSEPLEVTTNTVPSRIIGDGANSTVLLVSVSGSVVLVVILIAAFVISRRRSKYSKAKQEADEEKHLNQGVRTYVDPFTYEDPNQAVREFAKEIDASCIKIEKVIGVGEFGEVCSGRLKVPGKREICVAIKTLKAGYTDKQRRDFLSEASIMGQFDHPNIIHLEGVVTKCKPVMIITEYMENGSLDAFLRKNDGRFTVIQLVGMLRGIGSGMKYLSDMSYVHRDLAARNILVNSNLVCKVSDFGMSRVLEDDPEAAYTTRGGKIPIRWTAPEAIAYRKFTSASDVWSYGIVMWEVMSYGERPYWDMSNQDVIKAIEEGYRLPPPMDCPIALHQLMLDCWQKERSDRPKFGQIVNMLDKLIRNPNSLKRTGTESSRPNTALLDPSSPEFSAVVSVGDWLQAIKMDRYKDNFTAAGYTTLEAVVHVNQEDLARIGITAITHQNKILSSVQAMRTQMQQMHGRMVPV

[5] = target: Epithelial discoidin domain-containing receptor 1 (Homo sapiens) (UniProt Q08345); test: Inhibition of human DDR1 at 100 nM by KINOMEscan assay relative to control
Chain of Epithelial discoidin domain-containing receptor 1 (Homo sapiens) (Q08345 whole entry, the tested form may be a part): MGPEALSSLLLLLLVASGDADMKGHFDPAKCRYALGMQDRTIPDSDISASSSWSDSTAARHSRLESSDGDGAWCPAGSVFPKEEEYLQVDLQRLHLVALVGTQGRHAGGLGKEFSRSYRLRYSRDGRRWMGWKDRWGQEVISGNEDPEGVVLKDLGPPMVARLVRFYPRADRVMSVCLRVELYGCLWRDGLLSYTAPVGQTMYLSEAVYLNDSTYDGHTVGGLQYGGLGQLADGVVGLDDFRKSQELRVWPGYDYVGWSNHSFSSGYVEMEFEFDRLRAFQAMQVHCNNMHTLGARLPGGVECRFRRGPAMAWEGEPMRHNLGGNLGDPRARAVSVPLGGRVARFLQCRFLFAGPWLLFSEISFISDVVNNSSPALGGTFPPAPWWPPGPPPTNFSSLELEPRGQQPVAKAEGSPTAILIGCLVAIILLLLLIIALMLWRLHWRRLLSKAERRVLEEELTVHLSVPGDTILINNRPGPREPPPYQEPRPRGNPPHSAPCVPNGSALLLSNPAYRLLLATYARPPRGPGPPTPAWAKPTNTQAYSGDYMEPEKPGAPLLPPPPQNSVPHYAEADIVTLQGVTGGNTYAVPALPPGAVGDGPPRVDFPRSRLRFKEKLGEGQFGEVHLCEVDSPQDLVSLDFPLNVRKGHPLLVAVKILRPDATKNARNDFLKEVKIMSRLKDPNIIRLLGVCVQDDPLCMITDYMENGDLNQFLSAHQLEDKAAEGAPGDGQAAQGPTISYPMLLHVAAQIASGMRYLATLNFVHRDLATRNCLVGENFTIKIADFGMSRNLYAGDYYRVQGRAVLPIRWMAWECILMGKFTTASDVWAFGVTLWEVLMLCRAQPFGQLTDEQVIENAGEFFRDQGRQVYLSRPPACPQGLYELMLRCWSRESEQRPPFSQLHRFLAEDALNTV

[6] = target: Citron Rho-interacting kinase (Homo sapiens) (UniProt O14578); test: Inhibition of human CIT at 100 nM by KINOMEscan assay relative to control
[7] = target: T2, Mitogen-activated protein kinase 14; test: Displacement of SKF-86002 from human inactivated p38alpha assessed as dissociation half life incubated for 2 hrs by fluorescence based analysis
[8] = Drug uptake in Sprague-Dawley rat lung homogenate at 0.03 mg/kg, IT measured after 24 hrs by LC/MS/MS analysis; format: ADME, organism-based; conditions: in vivo, other
[9] = Protein binding in human plasma at 10 uM incubated for 4 hrs by LC/MS/MS analysis; format: ADME, cell-free; conditions: read-out: PPB
[10] = target: T3, Mitogen-activated protein kinase 13 (Homo sapiens, UniProt O15264); test: Inhibition of recombinant human full length His-tagged p38delta expressed in baculovirus expression system preincubated for 2 hrs followed by ATP addition and measured after 1 hr by Alpha screen assay
T3 sequence (O15264 whole entry): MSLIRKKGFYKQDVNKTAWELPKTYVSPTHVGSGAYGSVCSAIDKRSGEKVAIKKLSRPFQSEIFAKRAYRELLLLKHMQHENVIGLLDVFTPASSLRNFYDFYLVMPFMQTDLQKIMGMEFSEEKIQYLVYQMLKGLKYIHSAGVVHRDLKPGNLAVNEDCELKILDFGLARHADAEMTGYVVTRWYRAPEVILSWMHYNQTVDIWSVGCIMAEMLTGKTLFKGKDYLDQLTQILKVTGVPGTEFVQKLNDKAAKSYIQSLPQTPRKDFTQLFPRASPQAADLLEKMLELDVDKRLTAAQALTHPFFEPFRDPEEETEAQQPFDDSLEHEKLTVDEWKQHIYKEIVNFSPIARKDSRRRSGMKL

[11] = Cmax in Sprague-Dawley rat lung homogenate at 0.03 mg/kg, IT measured after 0.8 hrs by LC/MS/MS analysis; format: ADME, organism-based; set-up: time 0.8 hrs, dose 0.03 mg/kg, route it
[12] = Terminal half life in Sprague-Dawley rat lung homogenate at 0.03 mg/kg, IT measured after 24 hrs by LC/MS/MS analysis; format: ADME, organism-based; conditions: read-out: beta t1/2
[13] = Drug concentration in Sprague-Dawley rat lung homogenate at 1 mg/kg, IT measured after 24 hrs by LC/MS/MS analysis; format: ADME, organism-based; conditions: read-out: Ct
Rattus norvegicus [14] = test: Antiinflammatory activity against LPS-induced Sprague-Dawley rat inflammatory model assessed as inhibition of neutrophil cells release in BALF at 1 mg/kg, IT measured after 1 hr relative to control; format: functional
[15] = Inhibition of LPS-stimulated TNFalpha release in human PBMC cells preincubated for 1 hr followed by LPS stimulation and measured after 18 hrs; format: functional, cell-based
[16] = Protein binding in rat lung homogenate at 10 uM incubated for 4 hrs by LC/MS/MS analysis; format: ADME, tissue-based; conditions: read-out: PB (converted)
[17] = target: T4, Mitogen-activated protein kinase 12 (Homo sapiens, UniProt P53778); test: Inhibition of recombinant human full length His-tagged p38gamma expressed in baculovirus expression system preincubated for 2 hrs followed by ATP addition and measured after 1 hr by Alpha screen assay
T4 sequence (P53778 whole entry): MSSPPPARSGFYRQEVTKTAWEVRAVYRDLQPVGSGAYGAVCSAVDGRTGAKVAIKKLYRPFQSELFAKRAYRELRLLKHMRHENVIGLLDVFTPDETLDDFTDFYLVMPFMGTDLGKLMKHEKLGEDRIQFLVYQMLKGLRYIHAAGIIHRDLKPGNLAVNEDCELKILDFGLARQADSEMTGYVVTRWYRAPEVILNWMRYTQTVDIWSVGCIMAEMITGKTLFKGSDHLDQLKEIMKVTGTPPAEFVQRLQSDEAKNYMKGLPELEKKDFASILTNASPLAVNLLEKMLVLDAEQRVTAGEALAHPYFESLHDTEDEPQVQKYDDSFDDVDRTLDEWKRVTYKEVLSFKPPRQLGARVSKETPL

[18] = Protein binding in rat plasma at 10 uM incubated for 4 hrs by LC/MS/MS analysis; format: ADME, cell-free; conditions: read-out: PPB (converted)
[19] = target: T2, Mitogen-activated protein kinase 14; test: Inhibition of human recombinant full length GST-tagged p38alpha expressed in Escherichia coli preincubated for 2 hrs followed by ATP addition and measured after 1 hr by Alpha screen assay
[20] = Drug uptake in Sprague-Dawley rat lung homogenate at 0.03 mg/kg, IT measured after 7 hrs by LC/MS/MS analysis; format: ADME, organism-based; conditions: in vivo, other
[21] = Selectivity index, ratio of drug concentration in Sprague-Dawley rat lung homogenate to IC50 for human p38alpha; format: tissue-based; conditions: tissue homogenate
Rattus norvegicus [22] = test: Antiinflammatory activity against LPS-induced Sprague-Dawley rat inflammatory model assessed as inhibition of neutrophil cells release in BALF at 1 mg/kg, IT measured after 24 hrs relative to control; format: functional
[23] = Metabolic stability in rat liver microsomes assessed as half life at 1 uM preincubated for 10 mins followed by NADPH addition and measured after 30 mins by LC/MS/MS analysis; format: ADME, Microsome; conditions: time 40 min
[24] = target: Mitogen-activated protein kinase 11 (Homo sapiens, UniProt Q15759); test: Inhibition of recombinant human full length His-tagged p38beta expressed in baculovirus expression system preincubated for 2 hrs followed by ATP addition and measured after 1 hr by Alpha screen assay
Chain of Mitogen-activated protein kinase 11 (Q15759 whole entry): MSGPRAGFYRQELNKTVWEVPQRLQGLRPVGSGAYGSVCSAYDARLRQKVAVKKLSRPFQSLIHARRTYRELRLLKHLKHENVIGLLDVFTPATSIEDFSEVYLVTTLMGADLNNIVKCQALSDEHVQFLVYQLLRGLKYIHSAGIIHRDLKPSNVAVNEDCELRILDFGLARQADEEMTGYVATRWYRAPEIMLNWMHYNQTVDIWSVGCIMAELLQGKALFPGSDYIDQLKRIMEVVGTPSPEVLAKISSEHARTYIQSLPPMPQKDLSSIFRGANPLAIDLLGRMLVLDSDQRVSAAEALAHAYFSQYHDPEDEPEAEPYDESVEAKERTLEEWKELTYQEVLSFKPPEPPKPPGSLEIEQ

[25] = Cmax in Sprague-Dawley rat plasma at 0.03 mg/kg, IT measured after 0.8 hrs by LC/MS/MS analysis; format: ADME, organism-based; set-up: dose 0.03 mg/kg, time 0.8 hrs, route it
[26] = Permeability across apical to basolateral side in human Caco-2 cells at 10 uM measured after 60 mins by LC/MS/MS analysis; format: ADME, cell-based; conditions: read-out: permeability
[27] = Solubility of the compound at >=1 mg/ml measured after 30 mins by HPLC analysis; format: physicochemical
[28] = Cmax in Sprague-Dawley rat plasma at 0.3 mg/kg, IT measured after 0.8 hrs by LC/MS/MS analysis; format: ADME, organism-based; set-up: time 0.8 hrs, dose 0.3 mg/kg, route it
Rattus norvegicus [29] = test: Antiinflammatory activity against LPS-induced Sprague-Dawley rat inflammatory model assessed as inhibition of neutrophil cells release in BALF at 0.3 mg/kg, IT incubated for 9 hrs followed by LPS-stimulation relative to control; format: functional
[30] = Efflux ratio of permeability in human Caco-2 cells at 10 uM measured after 60 mins by LC-MS/MS analysis; format: ADME, cell-based
[31] = Cmax in Sprague-Dawley rat lung homogenate at 0.3 mg/kg, IT measured after 0.8 hrs by LC/MS/MS analysis; format: ADME, organism-based; set-up: time 0.8 hrs, dose 0.3 mg/kg, route it
[32] = Drug concentration in Sprague-Dawley rat lung homogenate at 0.3 mg/kg, IT measured after 24 hrs by LC/MS/MS analysis; format: ADME, organism-based; conditions: read-out: Ct
Rattus norvegicus [33] = test: Antiinflammatory activity against LPS-induced Sprague-Dawley rat inflammatory model assessed as inhibition of neutrophil cells release in BALF at 0.3 mg/kg, IT preincubated for 2 hrs followed by LPS-stimulation and measured after 4 hrs relative to control; format: functional; set-up: scale not given: the % may be the effect or the level left; conditions: time 6 hrs
Rattus norvegicus [34] = test: Antiinflammatory activity against LPS-induced Sprague-Dawley rat inflammatory model assessed as inhibition of neutrophil cells release in BALF at 0.1 mg/kg, IT preincubated for 2 hrs followed by LPS-stimulation and measured after 4 hrs relative to control; format: functional; set-up: scale not given: the % may be the effect or the level left; conditions: time 6 hrs

| SMILES | T1/2 [7] | Drug uptake [8] | IC50 [10] | IC50 [15] | fraction unbound at 4 h, 10 µM [16] | IC50 [17] | fraction unbound at 4 h, 10 µM [18] | IC50 [19] | Drug uptake [20] | Ratio [21] | IC50 [24] | Papp A→B at 1 h, 10 µM [26] | solubility at 0.5 h [27] | other results |
| --- | --- | --- | --- | --- | --- | --- | --- | --- | --- | --- | --- | --- | --- | --- |
| C[C@H]1CCCCN1c1nnc2ccc(O[C@@H]3CC[C@H](NC(=O)Nc4cc(C(C)(C)C)nn4-c4cnn(CCN(C)C)c4)c4ccccc43)cn12 | > 16 h | – | – | – | – | – | – | – | – | – | – | – | – | inhibition [1]: > 50%; inhibition [2]: > 50%; T1/2 [3]: 51 h; inhibition [4]: 82%; inhibition [5]: > 50%; inhibition [6]: > 50% |
| Cc1ccc(-n2nc(C(C)(C)C)cc2NC(=O)N[C@H]2CC[C@@H](Oc3ccc4nnc(C(C)C)n4c3)c3ccccc32)cc1 | > 16 h | 9.6% | > 5000 nM | 0.1 nM | 0.004 | 164 nM | < 0.001 | 0.2 nM | 8.4% | 149 | 0.2 nM | 2.8 ×10⁻⁶ cm/s | 10 µg/mL (≈ 17.3 µM) | fraction unbound at 4 h, 10 µM [9]: 0.001; Cmax [11]: 1080 nM; half-life [12]: > 24 h; concentration at 24 h [13]: 29800 nM; inhibition in vivo at 1 mg/kg (Rattus norvegicus [14]): 50%; inhibition in vivo at 1 mg/kg (Rattus norvegicus [22]): -3%; half-life at 1 µM [23]: < 0.167 h; Cmax [25]: 90 nM |
| C[C@@H]1CCC[C@H](C)N1c1nnc2ccc(O[C@@H]3CC[C@H](NC(=O)Nc4cc(C(C)(C)C)nn4-c4cnn(CCN(C)C)c4)c4ccccc43)cn12 | > 16 h | 5.4% | > 10000 nM | 0.5 nM | 0.002 | 805 nM | 0.004 | 0.05 nM | 10% | 183 | 0.1 nM | 1.9 ×10⁻⁶ cm/s | 620 µg/mL (≈ 893 µM) | Cmax [28]: 30 nM; inhibition in vivo at 0.3 mg/kg (Rattus norvegicus [29]): 43%; efflux ratio at 1 h, 10 µM [30]: > 2.5; Cmax [31]: 6360 nM; concentration at 24 h [32]: 4580 nM |
| C[C@H]1CCCCN1c1nnc2ccc(O[C@@H]3CC[C@H](NC(=O)Nc4cc(C(C)(C)C)nn4-c4cnn(CCN(C)C)c4)c4ccccc43)cn12.Cl | – | – | – | – | – | – | – | – | – | – | – | – | – | Activity (Rattus norvegicus [33]): 49%; Activity (Rattus norvegicus [34]): 55% |

From ChEMBL document CHEMBL5154908, “Design, Synthesis, and Biological Characterization of Inhaled p38α/β MAPK Inhibitors for the Treatment of Lung Inflammatory Diseases” (J Med Chem, 2022)
